From patent US7214519B2, “Screening method for identifying heme independent modulators of soluble guanylyl cyclase (sGC) activity using αβCys105 mutant sGC” (Board of Regents of the University of Texas System, priority 2003, dated 2007)
Where a chain is given by its changes, count along the chain named.

Key:
αβ^Cys105 mutant sGC = biological target: T1, αβ^Cys105 mutant sGC (Homo sapiens, UniProt Q02108+Q02153, H105C); assay: Assay of sGC activity ([32P]cGMP formation from GTP), purified αβ^Cys105 mutant enzyme; format: biochemical
T1 construct: made in house; host or cells: Sf9 cells (baculovirus)
T1 sequence (Q02153 1-619 H105C): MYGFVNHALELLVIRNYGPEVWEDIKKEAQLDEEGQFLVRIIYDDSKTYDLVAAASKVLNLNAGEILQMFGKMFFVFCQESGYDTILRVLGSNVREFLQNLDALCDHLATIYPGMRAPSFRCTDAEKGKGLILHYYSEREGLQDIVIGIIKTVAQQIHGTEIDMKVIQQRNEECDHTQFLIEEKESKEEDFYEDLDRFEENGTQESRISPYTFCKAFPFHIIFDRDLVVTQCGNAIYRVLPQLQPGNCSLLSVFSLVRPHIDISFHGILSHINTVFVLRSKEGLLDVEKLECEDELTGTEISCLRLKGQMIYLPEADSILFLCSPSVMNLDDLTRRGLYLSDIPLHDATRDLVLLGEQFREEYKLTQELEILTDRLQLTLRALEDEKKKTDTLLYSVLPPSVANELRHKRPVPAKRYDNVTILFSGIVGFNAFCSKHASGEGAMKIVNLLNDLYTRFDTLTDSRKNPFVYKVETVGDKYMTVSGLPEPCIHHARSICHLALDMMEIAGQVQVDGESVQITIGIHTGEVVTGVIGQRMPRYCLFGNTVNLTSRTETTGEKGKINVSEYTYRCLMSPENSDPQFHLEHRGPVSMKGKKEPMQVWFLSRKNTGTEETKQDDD
T1 sequence (Q02108 1-690): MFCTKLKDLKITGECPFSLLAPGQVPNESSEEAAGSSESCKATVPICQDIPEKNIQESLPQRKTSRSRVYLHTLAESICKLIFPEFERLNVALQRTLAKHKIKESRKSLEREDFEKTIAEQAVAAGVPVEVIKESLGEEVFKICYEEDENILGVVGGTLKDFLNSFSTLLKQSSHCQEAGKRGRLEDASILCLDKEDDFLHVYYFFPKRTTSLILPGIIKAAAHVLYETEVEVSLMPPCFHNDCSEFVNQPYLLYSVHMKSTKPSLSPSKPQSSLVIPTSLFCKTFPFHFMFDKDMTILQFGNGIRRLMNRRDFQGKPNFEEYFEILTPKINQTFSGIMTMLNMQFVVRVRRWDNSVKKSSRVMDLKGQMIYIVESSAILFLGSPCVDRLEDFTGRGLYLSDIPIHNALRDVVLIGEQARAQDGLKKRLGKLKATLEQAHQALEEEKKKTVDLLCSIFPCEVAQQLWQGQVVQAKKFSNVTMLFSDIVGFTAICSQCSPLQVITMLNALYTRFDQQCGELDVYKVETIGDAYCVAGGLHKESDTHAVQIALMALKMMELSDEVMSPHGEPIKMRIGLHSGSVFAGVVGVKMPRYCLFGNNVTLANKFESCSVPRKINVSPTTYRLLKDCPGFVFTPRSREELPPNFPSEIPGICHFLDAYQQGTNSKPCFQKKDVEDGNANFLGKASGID
Experimental: (§1) sGC Expression and Purification. […] Purification of sGC was performed as described earlier (26), the disclosure of which is hereby incorporated herein by reference, with the following modifications. Cells were harvested 72 h post infection, resuspended in loading buffer (25 mM triethanolamine, pH 7.5. 10 glycerol, 4 mM MgCl2 and 1 mM phenylmethylsulfonyl fluoride, and 5 μg/ml each of pepstatin A, leupeptin, aprotinin, and chymostatin,) and lysed by sonication. The lysate was subjected to 100,000×g centrifugation for 1 h. The high-speed supernate was loaded on a 60 ml DEAE-Sepharose (Amersham Pharmacia Biotech) column and washed with 60 ml of loading buffer without protease inhibitors. The proteins were eluted with loading buffer containing 250 mM NaCl and the eluate was directly loaded on a 30 ml His-Bind resin (Novagen) column. The column was washed with 60 ml of loading buffer followed by 60 ml of loading buffer with 45 mM imidazole. The enzyme was eluted with 175 mM imidazole and 2 ml fractions were collected. […] The enzyme at this stage was approximately 90–95% pure. To remove imidazole, sGC-containing fractions were diluted 3 fold with 25 mM triethanolamine pH 7.5, loaded on a 2 ml Hi-Trap DEAE-Sepharose column (Amersham Pharmacia Biotech), washed with 10 ml of loading buffer and eluted with 25 mM triethanolamine pH 7.5, 250 mM NaCl, 10 glycerol, 4 mM MgCl2, 0.5 mM EDTA, 0.5 mM EGTA. The enzyme obtained at this stage (95% or greater purity) was used for experiments.
(§2) Assay of sGC Activity. Enzyme activity was assayed by formation of [^32P] cGMP from α[^32P]GTP at 37° C. in a final volume of 100 μl. Incubation medium contained 50 mM triethanolamine-HCl buffer (pH 7.4), 1 mM 3-isobutyl-1-methylxanthine (IBMX), 1 mg/ml BSA. 1 mM cGMP, 3 mM MgCl2, 0.05 mg/ml creatine phosphokinase, 5 mM creatine phosphate, 0.1 mM EGTA. 200 μM GTP (about 10.000 cpm/pmol). The reaction was started by addition of the substrate (GTP) with or without activators. 1 mM DTT, GSH or cysteine were added to the incubation medium before the addition of GTP. Thiol concentration varied in some experiments as indicated. Samples containing 0.2 μg sGC were incubated for 10 or 15 min and the reaction was stopped by addition of 500 μl 150 mM zinc acetate and 500 μl 180 mM sodium carbonate. The pellet of zinc carbonate containing most of the unreacted GTP was removed by centrifugation and the supernatant fractions were loaded onto columns filled with 1 g of neutral alumina. Columns were then eluted with 10 ml 0.1 M Tris-HCl buffer (pH 7.5) and Cherenkov radiation in flow through plus eluate was counted in a LKB liquid scintillation spectrometer. Samples incubated in the absence of sGC were used as a negative control. The concentration of dimethylsulfoxide (DMSO) used as a vehicle for YC-1 was not higher than 0.1 and had no effect on sGC activity as determined previously.

wild type sGC = biological target: T2, wild type sGC (Homo sapiens, UniProt Q02108+Q02153); assay: Assay of sGC activity ([32P]cGMP formation from GTP), purified wild type enzyme; format: biochemical
T2 construct: made in house; host or cells: Sf9 cells (baculovirus)
T2 sequence (Q02153 1-619): T1 sequence (Q02153 1-619 H105C) with C105H
T2 sequence (Q02108 1-690): T1 sequence (Q02108 1-690)
Experimental: as §1, §2

[1] = 2 μM BAY-41-2272, data not shown

## Nc1nc(-c2nn(Cc3ccccc3F)c3ncccc23)ncc1C1CC1 [BAY-41-2272, 5-cyclopropyl-2-[1-(2-fluoro-benzyl)-1H-pyrazolo[3,4-b]pyridin-3-yl]-pyrimidin-4-ylamine, reference compound]
αβ^Cys105 mutant sGC; [1]
  effect compared with 100 μM YC-1: Identical effects
Wild type sGC; [1]
  effect compared with 100 μM YC-1: Identical effects

## O[C@@H](CS)[C@@H](O)CS [DTT, reference compound]
αβ^Cys105 mutant sGC; concentration-response, FIG. 1B
  concentration at which inhibitory effect is prominent: higher than 1 mM
αβ^Cys105 mutant sGC; millimolar concentrations of DTT
  fold decrease in enzymatic activity: 5–7 fold
Wild type sGC; 1 mM DTT vs no thiols
  change of activity without DTT: did not change significantly

## N[C@@H](CCC(=O)N[C@@H](CS)C(=O)NCC(=O)O)C(=O)O [GSH, glutathione, reference compound]
αβ^Cys105 mutant sGC; GSH as reducing agent, no DTT
  specific activity in the presence of GSH: up to 2 μmol/min/mg
αβ^Cys105 mutant sGC; GSH concentration above 1 mM
  effect of GSH on activity: slight stimulatory effect

## C=CC1=C(C)c2cc3[nH]c(cc4nc(cc5[nH]c(cc1n2)c(C)c5CCC(=O)O)C(CCC(=O)O)=C4C)c(C)c3C=C [PPIX, protoporphyrin IX, reference compound]
αβ^Cys105 mutant sGC; 1 μM PPIX, absence of DTT
  stimulation of basal activity by PPIX: 80

## OCc1ccc(-c2nn(Cc3ccccc3)c3ccccc23)o1 [YC-1, 3-(5′-Hydroxymethyl-2′furyl)-1-benzyl-indazole, reference compound]
αβ^Cys105 mutant sGC; 100 μM YC-1, DTT-free conditions
  increase of activity with YC-1 activation: 30
αβ^Cys105 mutant sGC; 100 μM YC-1, DTT-treated heme-reconstituted enzyme
  extent of activation by YC-1 after heme reconstitution: did not change the extent of activation
αβ^Cys105 mutant sGC; 100 μM YC-1, in the presence of DTT
  fold activation by YC-1: up to 3 fold
Wild type sGC; 100 μM YC-1
  fold stimulation by YC-1: 11 fold
  specific activity with YC-1: 0.15 µmol/min/mg

## CCCCC/C=C\C/C=C\C/C=C\C/C=C\CCCC(=O)O [arachidonic acid, reference compound]
αβ^Cys105 mutant sGC; 1 mM arachidonic acid, in the presence of DTT
  activity with arachidonic acid: 0.5 µmol/min/mg
αβ^Cys105 mutant sGC; 1 mM, in the presence of DTT
  fold stimulation by arachidonic acid: 3.5 fold
αβ^Cys105 mutant sGC; absence of DTT
  stimulation by arachidonic acid: only modestly stimulated
Wild type sGC; not affected by DTT, data not shown
  maximum fold activation by arachidonic acid: 3 fold

## NCCSSCCN [cystamine, reference compound]
αβ^Cys105 mutant sGC; 1 mM cystamine, 1 mM DTT
  sensitivity to cystamine in the presence of DTT: less sensitive
Wild type sGC; 1 mM cystamine, 1 mM DTT
  effect of cystamine on activity in the presence of DTT: reversed
Wild type sGC; 1 mM cystamine, no DTT
  effect of cystamine on activity: inhibited
